Source: publication PMC10033419, “Blocking NS3–NS4B interaction inhibits dengue virus in non-human primates” (Nature, 2023)
“And” between values parts separate entries of the source, which are not always exact repeats. Identical values can stand only once. Like-named read-outs stand apart in the source and are kept apart here.

Tested on: DENV-2 RL
Experiment: microbe, parasite or virus in culture
Type: cell-based
Conditions: Dengue virus, DENV2, Vero

`COc1cc(N[C@H](C(=O)c2c[nH]c3ccc(OC(F)(F)F)cc23)c2ccc(Cl)cc2OC)cc(S(C)(=O)=O)c1` [JNJ-1802] was tested, and the EC50 (read-out: EC50 values Ave, B sample, passage 8) was 0.126 nM, the EC50 (read-out: EC50 values Ave, B sample, passage 9) was 0.126 nM and the EC50 (read-out: EC50 values Ave, B sample, passage 10) was 0.126 nM. The EC50 (read-out: EC50 values Ave, B sample, passage 11) was 0.000146 µg/mL and 0.251 nM, the EC50 (read-out: EC50 values Ave, B sample, passage 12) was 0.000146 µg/mL and 0.251 nM and the EC50 (read-out: EC50 values Ave, B sample, passage 13) was 0.000293 µg/mL and 0.503 nM. The EC50 (read-out: EC50 values Ave, B sample, passage 14) was 0.126 nM, the EC50 (read-out: EC50 values Ave, B sample, passage 15) was 0.126 nM and the EC50 (read-out: EC50 values Ave, B sample, passage 16) was 0.000146 µg/mL and 0.251 nM. The EC50 (read-out: EC50 values Ave, B sample, passage 17) was 0.000146 µg/mL and 0.251 nM, the EC50 (read-out: EC50 values Ave, B sample, passage 18) was 0.000146 µg/mL and 0.251 nM and the EC50 (read-out: EC50 values Ave, B sample, passage 19) was 0.000293 µg/mL and 0.503 nM. For the same molecule, the EC50 (read-out: EC50 values Ave, B sample, passage 20) was 0.000293 µg/mL and 0.503 nM, the EC50 (read-out: EC50 values Ave, B sample, passage 21) was 0.000293 µg/mL and 0.503 nM and the EC50 (read-out: EC50 values Ave, B sample, passage 22) was 0.000293 µg/mL and 0.503 nM. The EC50 (read-out: EC50 values Ave, B sample, passage 23) was 1.01 nM, the EC50 (read-out: EC50 values Ave, B sample, passage 24) was 0.00117 µg/mL and 2.01 nM and the EC50 (read-out: EC50 values Ave, B sample, passage 25) was 0.00234 µg/mL and 4.02 nM. For the same molecule, the EC50 (read-out: EC50 values Ave, B sample, passage 26) was 0.00469 µg/mL and 8.04 nM, the EC50 (read-out: EC50 values Ave, B sample, passage 27) was 0.00469 µg/mL and 8.04 nM and the EC50 (read-out: EC50 values Ave, B sample, passage 28) was 0.00469 µg/mL and 8.04 nM. For the same molecule, the EC50 (read-out: EC50 values Ave, B sample, passage 31) was 0.0234 µg/mL and 40.2 nM, the EC50 (read-out: EC50 values Ave, B sample, passage 32) was 0.0234 µg/mL and 40.2 nM and the EC50 (read-out: EC50 values Ave, B sample, passage 33) was 0.0469 µg/mL and 80.4 nM. The EC50 (read-out: EC50 values Ave, B sample, passage 34) was 0.0469 µg/mL and 80.4 nM, the EC50 (read-out: EC50 values Ave, B sample, passage 35) was 0.0469 µg/mL and 80.4 nM and the EC50 (read-out: EC50 values Ave, B sample, passage 36) was 0.0469 µg/mL and 80.4 nM. The EC50 (read-out: EC50 values Ave, B sample, passage 37) was 0.0469 µg/mL and 80.4 nM, the EC50 (read-out: EC50 values Ave, B sample, passage 38) was 0.0469 µg/mL and 80.4 nM and the EC50 (read-out: EC50 values Ave, B sample, passage 39) was 0.0938 µg/mL and 161 nM. The EC50 (read-out: EC50 values Ave, B sample, passage 40) was 322 nM, the EC50 (read-out: EC50 values Ave, B sample, passage 41) was 0.375 µg/mL and 643 nM and the EC50 (read-out: EC50 values Ave, B sample, passage 42) was 0.375 µg/mL and 643 nM. For the same molecule, the EC50 (read-out: EC50 values Ave, B sample, passage 43) was 0.375 µg/mL and 643 nM, the EC50 (read-out: EC50 values Ave, B sample, passage 44) was 0.375 µg/mL and 643 nM and the EC50 (read-out: EC50 values Ave, B sample, passage 45) was 0.375 µg/mL and 643 nM. For the same molecule, the EC50 (read-out: EC50 values Ave, B sample, passage 46) was 0.375 µg/mL and 643 nM, the EC50 (read-out: EC50 values Ave, B sample, passage 47) was 0.375 µg/mL and 643 nM and the EC50 (read-out: EC50 values Ave, B sample, passage 48) was 1290 nM. It also gave an EC50 (read-out: EC50 values Ave, B sample, passage 49) of 1290 nM, an EC50 (read-out: EC50 values Ave, B sample, passage 50 (END)) of 1290 nM and an EC50 (read-out: EC50 values [Well 1], A sample, passage 1) of 0.049 ng/mL. For the same molecule, the EC50 (read-out: EC50 values [Well 1], A sample, passage 2) was 0.049 ng/mL, the EC50 (read-out: EC50 values [Well 1], A sample, passage 3) was 0.049 ng/mL and the EC50 (read-out: EC50 values [Well 1], A sample, passage 4) was 0.049 ng/mL. For the same molecule, the EC50 (read-out: EC50 values [Well 1], A sample, passage 5) was 0.049 ng/mL, the EC50 (read-out: EC50 values [Well 1], A sample, passage 7) was 0.049 ng/mL and the EC50 (read-out: EC50 values [Well 1], A sample, passage 8) was 0.049 ng/mL. It also gave an EC50 (read-out: EC50 values [Well 1], A sample, passage 10) of 0.195 ng/mL, an EC50 (read-out: EC50 values [Well 1], A sample, passage 11) of 0.195 ng/mL and an EC50 (read-out: EC50 values [Well 1], A sample, passage 12) of 0.195 ng/mL. It also gave an EC50 (read-out: EC50 values [Well 1], A sample, passage 13) of 0.391 ng/mL, an EC50 (read-out: EC50 values [Well 1], A sample, passage 16) of 1.56 ng/mL and an EC50 (read-out: EC50 values [Well 1], A sample, passage 17) of 3.13 ng/mL. The EC50 (read-out: EC50 values [Well 1], A sample, passage 18) was 6.25 ng/mL, the EC50 (read-out: EC50 values [Well 1], A sample, passage 20) was 25 ng/mL and the EC50 (read-out: EC50 values [Well 1], A sample, passage 21) was 25 ng/mL. It also gave an EC50 (read-out: EC50 values [Well 1], A sample, passage 22) of 25 ng/mL, an EC50 (read-out: EC50 values [Well 1], A sample, passage 23) of 25 ng/mL and an EC50 (read-out: EC50 values [Well 1], A sample, passage 24) of 50 ng/mL. For the same molecule, the EC50 (read-out: EC50 values [Well 1], A sample, passage 25) was 50 ng/mL, the EC50 (read-out: EC50 values [Well 1], A sample, passage 26) was 100 ng/mL and the EC50 (read-out: EC50 values [Well 1], A sample, passage 27) was 200 ng/mL. For the same molecule, the EC50 (read-out: EC50 values [Well 1], A sample, passage 28) was 200 ng/mL, the EC50 (read-out: EC50 values [Well 1], A sample, passage 29) was 200 ng/mL and the EC50 (read-out: EC50 values [Well 1], A sample, passage 30) was 200 ng/mL. It also gave an EC50 (read-out: EC50 values [Well 1], A sample, passage 31) of 100 ng/mL.
